Values of other authors in US20140066461A1, “METHODS FOR DIAGNOSING AND TREATING SCHIZOPHRENIA” (priority 2012, published 2014).

Key:
[1] = system: protein tyrosine phosphatases
[2] = molecular target: BTK (Homo sapiens, UniProt Q06187)
[3] = system: patients with previously treated mantle cell lymphoma
[4] = system: rats
[5] = system: rats; remark: listed apart in the source

Chain of BTK (Q06187 whole entry): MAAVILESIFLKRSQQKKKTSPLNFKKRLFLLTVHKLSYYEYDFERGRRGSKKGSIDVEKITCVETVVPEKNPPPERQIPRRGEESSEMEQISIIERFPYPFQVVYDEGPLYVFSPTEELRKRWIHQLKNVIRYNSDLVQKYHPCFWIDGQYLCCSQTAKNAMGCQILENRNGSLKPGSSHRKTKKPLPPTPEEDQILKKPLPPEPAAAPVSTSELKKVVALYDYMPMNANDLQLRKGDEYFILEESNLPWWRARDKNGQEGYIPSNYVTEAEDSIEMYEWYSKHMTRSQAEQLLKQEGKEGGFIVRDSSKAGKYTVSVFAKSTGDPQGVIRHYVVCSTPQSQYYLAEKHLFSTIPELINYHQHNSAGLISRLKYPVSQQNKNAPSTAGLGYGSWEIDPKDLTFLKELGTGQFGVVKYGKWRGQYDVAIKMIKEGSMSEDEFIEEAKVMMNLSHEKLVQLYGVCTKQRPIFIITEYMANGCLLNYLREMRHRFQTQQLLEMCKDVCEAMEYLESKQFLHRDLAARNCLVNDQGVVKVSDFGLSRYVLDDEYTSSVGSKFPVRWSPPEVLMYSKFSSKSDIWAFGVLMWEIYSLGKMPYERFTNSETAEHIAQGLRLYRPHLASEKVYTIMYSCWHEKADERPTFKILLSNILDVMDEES

## Cc1ccc(S(=O)(=O)/C=C/C#N)cc1 [BAY-11-7082]
[1]
  inhibition of protein tyrosine phosphatases: act as inhibitors of protein tyrosine phosphatases

## Nc1ncnc2c1c(-c1ccc(Oc3ccccc3)cc1)nn2C1CCCC1 [PCI-29732]
[2]
  mode of BTK inhibition: reversible BTK inhibitor

## C=CC(=O)N1CCC[C@@H](n2nc(-c3ccc(Oc4ccccc4)cc3)c3c(N)ncnc32)C1 [PCI-32765]
[3]; 560 mg/day
  complete responses: About 15%
[3]; 560 mg/day, 51 patients evaluable for efficacy, early in the trial
  objective responses (partial plus complete): 69%
[3]; MCL study, accompanied by large increases in lymphocyte counts in circulation
  effect on lymph nodes: rapid shrinkage of lymph nodes swollen with malignant cells
[3]; preliminary data, ongoing phase II trial
  patients exhibiting complete or partial responses: About two-thirds
[3]; small trials, mantle cell lymphoma
  toxicity: low toxicity

## O=C(CCCN1CCC(O)(c2ccc(Cl)cc2)CC1)c1ccc(F)cc1 [haloperidol]
[4]
  effects of amphetamine on attention: reverse the effects of amphetamine on attention in rats
[5]
  picrotoxin effect on prepulse inhibition of startle: reduces this effect
